# Assay results published in patent US20210301306A1 (priority 2018, published 2021).
# System: normally fed mice
# Assay: Feeding behavior in normally fed mice injected into the stomach wall with vector, then given CNO
# Type: in vivo
# Conditions: 1 mg/kg CNO, FIGS. 9A-9E
# Description: FIG. 3 depicts the response of normally fed […] mice injected into the stomach wall with retroAAV/rh10 expressing a DREADD (hD3q) which activates neurons in response to 1 mg/kg CNO. Animals injected with retroAAV/rh10 expressing the marker gene mCherry fed normally in response to CNO.
structure (smiles),measurement,value
"C[N+]1([O-])CCN(C2=Nc3cc(Cl)ccc3Nc3ccccc32)CC1 [CNO, clozapine-N-oxide]",long term feeding behavior,long term stability of reduced feeding behavior
